pIC50: −log10 of the molar value. Like-named read-outs stand apart in the source and are kept apart here.
How the values were obtained:
[1] = Pharmacokinetic test (BA, CLtot); format: in vivo; conditions: rat, plasma, SD rats
Method: • (1) Animals: SD rats were used • (2) Breeding conditions: SD rats were allowed to freely take solid food and sterilized tap water. • (3) Dose and grouping: orally or intravenously administered at a predetermined dose; grouping was as follows (Dose depends on the compound)
Oral administration: 1 mg/kg (n=2)
The total body clearance (CLtot) was calculated by dividing the dose by the AUC of the intravenous administration group.

Rat P2X3 receptor = Rat P2X3 receptor (Rattus norvegicus (Rat), UniProt P49654); experiment: Evaluation of rat P2X3 receptor inhibitory activity in the presence of rat serum albumin (RSA); format: cell-based; conditions: read-out: ratP2X3 + RSA IC50
Method: Rat P2X3 receptor gene (GenBank accession number NM_031075) was expressed in C6BU-1 cell. The C6BU-1 cells were seeded in a 96-well micro titer plate at a concentration of 2500 cells/well and cultured in the medium (7.0% fetal bovine serum, 7.0% horse serum, and 1% antibiotic and antifungal in DMEM) for one day at 37° C. under 5% carbon dioxide atmosphere. The plasmid was transfected into the cells using transfection reagent FuGENE6 (Promega). The transfected cells were cultured in the medium for one day at 37° C. under 5% carbon dioxide atmosphere. The medium was replaced with 4 μM Fluo-4-AM solution (pH 7.5) containing 20 mM HEPES, 137 mM NaCl, 5.27 mM KCl, 0.9 mM MgCl2, 1.26 mM CaCl2, 5.6 mM D-glucose, 2.5 mM probenecid, 10% RSA, and 0.08% Pluronic F-127, and incubated at 37° C. under 5% dioxide carbon atmosphere for one hour. The plate was washed with washing buffer (20 mM HEPES, 137 mM NaCl, 5.27 mM KCl, 0.9 mM MgCl2, 1.26 mM CaCl2, 5.6 mM D-glucose, 2.5 mM probenecid, pH 7.5), and each well was added with 40 μL of this buffer. The plate was placed in High-Throughput Screening System FDSS 3000 (Hamamatsu Photonics K.K.). Measurement of fluorescence intensity by FDSS 3000 was started, and 40 μL of DMSO solutions containing 1% RSA (final concentrations) and different concentrations of the test compound as prepared by dilution with dilution buffer (20 mM HEPES, 137 mM NaCl, 5.27 mM KCl, 0.9 mM MgCl2, 1.26 mM CaCl2, 5.6 mM D-glucose, 2.5 mM probenecid, 0.1% Pluronic F-127, pH 7.5) were dispensed to each well through the built-in automatic dispenser. Five minutes after, 50 nM ATP solution (50 μL) prepared by dilution with the dilution buffer was dispensed through the built-in automatic dispenser, and the measurement of fluorescence intensity was continued for 4 min. For each well, the specific maximum fluorescence intensity was calculated as the ratio of the maximum fluorescence intensity after addition of the ATP solution to the fluorescence intensity at the starting of the measurement. […] FDSS software (Hamamatsu Photonics K.K.) was used for calculation of the specific maximum fluorescence intensity. IC50 was calculated using Microsoft Excel (Microsoft Corporation) and XLfit (idbs Ltd.).

human P2X3 receptor = human P2X3 receptor (Homo sapiens (Human), UniProt P56373); experiment: Evaluation of human P2X3 receptor inhibitory activity (FLIPR Ca fluorescence, ATP-evoked); format: cell-based; conditions: C6BU-1 cells stably expressing human P2X3 receptor
Method: Stably expressing cell line (C6BU-1 cell transfected with human P2X3 receptor gene (GenBank accession number Y07683) was used. The cells were seeded in a 384-well PDL-coated microtiter plate at a concentration of 3000 cells/well and cultured in the medium (8.3% fetal bovine serum, 8.3% horse serum, and 1% antibiotic and antifungal in DMEM) for one day at 37° C. under 5% carbon dioxide atmosphere. The medium was replaced with 4 μM Fluo-3-AM solution (20 mM HEPES, 137 mM NaCl, 2.7 mM KCl, 0.9 mM MgCl2, 5.0 mM CaCl2, 5.6 mM D-glucose, 2.5 mM probenecid, 0.5% BSA, and 0.04% Pluronic P-127, pH 7.5) and incubated at 37° C. under 5% dioxide carbon atmosphere for one hour. The plate was washed with washing buffer (20 mM HEPES, 137 mM NaCl, 2.7 mM KCl, 0.9 mM MgCl2, 5.0 mM CaCl2, 5.6 mM D-glucose, 2.5 mM probenecid, pH 7.5), and each well was added with 20 μL of the washing buffer. The plate was placed in High-Throughput Screening System FLIPR 384 (Molecular Device Co.). Measurement of fluorescence intensity by […] was started, and 20 μL of DMSO solutions containing different concentrations of the test compound as prepared by dilution with dilution buffer (20 mM HEPES, 137 mM NaCl, 2.7 mM KCl, 0.9 mM MgCl2, 5.0 mM CaCl2, 5.6 mM D-glucose, 2.5 mM probenecid, 0.1% Pluronic F-127, pH 7.5) were dispensed to each well through the built-in automatic dispenser. Five minutes after, 150 nM ATP solution (25 μL) prepared by dilution with the dilution buffer was dispensed through the built-in automatic dispenser, and the measurement of fluorescence intensity was continued for 4 min. For each well, the specific maximum fluorescence intensity was calculated as the ratio of the maximum fluorescence intensity after addition of the ATP solution to the fluorescence intensity at the starting of the measurement. […] The specific maximum fluorescence intensify and IC50 were calculated using Spotfire (Science & Technology Systems. Inc.)

[2] = Solubility test (1% DMSO, artificial intestinal juice pH 6.8); format: physicochemical; conditions: artificial intestinal juice pH 6.8 with 1% DMSO, 25 °C, fassgf or other biorelevant, kinetic from dmso stock, artificial intestinal juice pH 6.8, 25 degrees Celsius, read-out: Solubulity
Method: The solubility of a compound was determined under a condition in which 1% DMSO was added. 10 mmol/L compound solution was prepared using DMSO, and then 2 μL of the compound solution was added to 198 μL of artificial intestinal juice in pH 6.8 (to 250 mL of 0.2 mol/L potassium dihydrogen phosphate reagent solution was added 118 mL of 0.2 mol/L NaOH reagent solution and water to provide a final volume of 1000 mL). After standing at 25 degrees Celsius for 18 hours, the mixed solution was filtrated with suction. The filtrate was diluted twice with methanol/water (1/1), and then a concentration in the filtration was measured with HPLC or LC/MS/MS by the absolute calibration method.

CYP2C9 = CYP2C9 (Homo sapiens (Human), UniProt P11712); experiment: CYP inhibition test, CYP2C9; format: in vitro ADME; conditions: pooled human hepatic microsome; tolbutamide methyl-hydroxylation
Method: (§1) Using commercially available pooled human hepatic microsome, and employing, as markers, 7-ethoxyresorufin-O-deethylation (CYP1A2), tolbutamide methyl-hydroxylation (CYP2C9), mephenytoin 4′-hydroxylation (CYP2C19), dextromethorphan O-demethylation (CYP2D6), and terfenedine hydroxylation as typical substrate metabolism reactions of human main five CYP enzyme forms (CYP1A2, 2C9, 2C19, 2D6, 3A4), an inhibitory degree of each metabolite production amount by a test compound was assessed.
(§2) The reaction conditions were as follows: substrate, 0.5 μmol/L ethoxyresorufin (CYP1A2), 100 μmol/L tolbutamide (CYP2C9), 50 μmol/L S-mephenitoin (CYP2C19), 5 μmol/L dextromethorphan (CYP2D6), 1 μmol/L terfenedine (CYP3A4); reaction time, 15 minutes; reaction temperature, 37° C. enzyme, pooled human hepatic microsome 0.2 mg protein/mL; test, drug concentration, 1.0, 5.0, 10, 20 μmol/L (four points).
(§3) Each five kinds of substrates, human hepatic microsome, or a test drug in 50 mmol/L Hepes buffer as a reaction solution was added to a […] at the composition as described above, NADPH, as a cofactor was added to initiate metabolism reactions as markers and, after the incubation at 37° C. for 15 minutes, a methanol/acetonitrile=1/1 (v/v) solution was added to stop the reaction. After the centrifugation at 3000 rpm for 15 minutes, resorufin (CYP1A2 metabolite) in the supernatant was quantified by a fluorescent multilabel counter and tributamide hydroxide (CYP2CP metabolite), mephenytoin 4′hydroxide (CYP2C19 metabolite), […] (CYP2D6 metabolite), and terfenadine alcohol (CYP3A4 metabolite) were quantified by LC/MS/MS.
(§4) Addition of only DMSO being a solvent dissolving a drug to a reaction system was adopted as a control (100%), remaining activity (%) was calculated at each concentration of a test drug added as the solution and IC50 was calculated by reverse presumption by a logistic model using a concentration and an inhibition rate.

CYP3A4 = CYP3A4 (Homo sapiens (Human), UniProt P08684); experiment: CYP inhibition test, CYP3A4; format: in vitro ADME; conditions: pooled human hepatic microsome; terfenedine hydroxylation
Method: as §1, §2, §3, §4

CYP2C19 = CYP2C19 (Homo sapiens (Human), UniProt P33261); experiment: CYP inhibition test, CYP2C19; format: in vitro ADME; conditions: pooled human hepatic microsome; mephenytoin 4′-hydroxylation
Method: as §1, §2, §3, §4

CYP1A2 = CYP1A2 (Homo sapiens (Human), UniProt P05177); experiment: CYP inhibition test, CYP1A2; format: in vitro ADME; conditions: pooled human hepatic microsome; 7-ethoxyresorufin-O-deethylation
Method: as §1, §2, §3, §4

CYP2D6 = CYP2D6 (Homo sapiens (Human), UniProt P10635); experiment: CYP inhibition test, CYP2D6; format: in vitro ADME; conditions: pooled human hepatic microsome; dextromethorphan O-demethylation
Method: as §1, §2, §3, §4

[3] = intravenous administration 0.5 mg/kg
[4] = intravenous administration 0.5 mg/kg, read-out: AUC (iv)
[5] = oral administration 1 mg/kg, read-out: AUC (po)

Chain of CYP2D6 (P10635 whole entry): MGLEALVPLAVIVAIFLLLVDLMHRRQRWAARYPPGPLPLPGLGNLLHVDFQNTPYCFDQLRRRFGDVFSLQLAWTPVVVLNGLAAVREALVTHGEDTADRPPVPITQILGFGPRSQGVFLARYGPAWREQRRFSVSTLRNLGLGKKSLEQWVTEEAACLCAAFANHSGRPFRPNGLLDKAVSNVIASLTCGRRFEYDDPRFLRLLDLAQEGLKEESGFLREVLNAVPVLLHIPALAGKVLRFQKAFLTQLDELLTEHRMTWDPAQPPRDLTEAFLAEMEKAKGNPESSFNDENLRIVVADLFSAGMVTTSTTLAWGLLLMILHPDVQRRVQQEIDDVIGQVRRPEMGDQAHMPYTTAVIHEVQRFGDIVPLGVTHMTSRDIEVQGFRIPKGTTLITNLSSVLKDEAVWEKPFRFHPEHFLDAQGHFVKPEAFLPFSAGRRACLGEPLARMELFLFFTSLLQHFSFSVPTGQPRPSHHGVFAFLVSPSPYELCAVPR
Chain of CYP3A4 (P08684 whole entry): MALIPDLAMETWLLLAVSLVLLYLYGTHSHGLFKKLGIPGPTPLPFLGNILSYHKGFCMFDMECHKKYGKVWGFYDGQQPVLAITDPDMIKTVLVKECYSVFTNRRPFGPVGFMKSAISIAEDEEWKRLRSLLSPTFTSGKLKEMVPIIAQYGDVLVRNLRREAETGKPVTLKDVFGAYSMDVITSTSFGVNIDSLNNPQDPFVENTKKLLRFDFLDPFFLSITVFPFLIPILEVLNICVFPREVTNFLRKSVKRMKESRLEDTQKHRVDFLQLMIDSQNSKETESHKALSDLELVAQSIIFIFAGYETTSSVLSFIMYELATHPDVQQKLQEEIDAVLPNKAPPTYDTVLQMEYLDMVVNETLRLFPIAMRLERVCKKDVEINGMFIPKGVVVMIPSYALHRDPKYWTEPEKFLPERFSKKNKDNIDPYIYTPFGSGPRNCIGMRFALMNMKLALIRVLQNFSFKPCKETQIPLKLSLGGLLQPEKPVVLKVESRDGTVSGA
Chain of Rat P2X3 receptor (P49654 whole entry): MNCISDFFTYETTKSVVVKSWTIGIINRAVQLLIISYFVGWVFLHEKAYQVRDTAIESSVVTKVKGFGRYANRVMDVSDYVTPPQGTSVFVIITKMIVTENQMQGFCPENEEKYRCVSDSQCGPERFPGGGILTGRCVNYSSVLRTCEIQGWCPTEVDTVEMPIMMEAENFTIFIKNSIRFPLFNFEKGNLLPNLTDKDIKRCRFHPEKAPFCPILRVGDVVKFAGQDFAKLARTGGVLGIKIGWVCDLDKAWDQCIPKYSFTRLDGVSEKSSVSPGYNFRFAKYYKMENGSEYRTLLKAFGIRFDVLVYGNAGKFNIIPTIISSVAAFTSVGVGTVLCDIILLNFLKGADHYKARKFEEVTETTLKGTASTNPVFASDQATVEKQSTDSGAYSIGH
Chain of CYP2C19 (P33261 whole entry): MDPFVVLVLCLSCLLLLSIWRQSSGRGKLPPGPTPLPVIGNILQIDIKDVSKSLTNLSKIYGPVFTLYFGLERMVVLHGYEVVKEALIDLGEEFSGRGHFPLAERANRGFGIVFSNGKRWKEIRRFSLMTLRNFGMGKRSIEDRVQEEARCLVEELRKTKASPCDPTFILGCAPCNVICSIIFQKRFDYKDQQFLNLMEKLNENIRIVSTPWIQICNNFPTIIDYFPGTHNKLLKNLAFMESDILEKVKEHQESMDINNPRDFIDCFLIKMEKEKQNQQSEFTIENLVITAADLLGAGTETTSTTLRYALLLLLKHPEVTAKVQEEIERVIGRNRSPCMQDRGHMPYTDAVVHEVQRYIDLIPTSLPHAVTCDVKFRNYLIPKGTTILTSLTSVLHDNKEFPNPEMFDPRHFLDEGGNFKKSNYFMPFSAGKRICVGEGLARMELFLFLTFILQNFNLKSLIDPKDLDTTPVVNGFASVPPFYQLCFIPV
Chain of CYP1A2 (P05177 whole entry): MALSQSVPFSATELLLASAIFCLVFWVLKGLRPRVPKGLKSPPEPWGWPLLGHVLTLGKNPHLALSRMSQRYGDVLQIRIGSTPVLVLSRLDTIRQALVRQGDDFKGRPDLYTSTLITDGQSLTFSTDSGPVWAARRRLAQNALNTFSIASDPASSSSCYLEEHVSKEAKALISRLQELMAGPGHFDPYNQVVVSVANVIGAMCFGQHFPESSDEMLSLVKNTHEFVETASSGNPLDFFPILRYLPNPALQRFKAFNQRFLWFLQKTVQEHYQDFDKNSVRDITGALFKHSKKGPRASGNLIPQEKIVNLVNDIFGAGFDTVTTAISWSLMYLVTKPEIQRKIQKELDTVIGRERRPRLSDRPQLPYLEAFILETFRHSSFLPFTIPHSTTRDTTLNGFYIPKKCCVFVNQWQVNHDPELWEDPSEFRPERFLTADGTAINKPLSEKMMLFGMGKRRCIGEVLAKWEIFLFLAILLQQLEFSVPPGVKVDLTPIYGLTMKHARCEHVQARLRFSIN
Chain of CYP2C9 (P11712 whole entry): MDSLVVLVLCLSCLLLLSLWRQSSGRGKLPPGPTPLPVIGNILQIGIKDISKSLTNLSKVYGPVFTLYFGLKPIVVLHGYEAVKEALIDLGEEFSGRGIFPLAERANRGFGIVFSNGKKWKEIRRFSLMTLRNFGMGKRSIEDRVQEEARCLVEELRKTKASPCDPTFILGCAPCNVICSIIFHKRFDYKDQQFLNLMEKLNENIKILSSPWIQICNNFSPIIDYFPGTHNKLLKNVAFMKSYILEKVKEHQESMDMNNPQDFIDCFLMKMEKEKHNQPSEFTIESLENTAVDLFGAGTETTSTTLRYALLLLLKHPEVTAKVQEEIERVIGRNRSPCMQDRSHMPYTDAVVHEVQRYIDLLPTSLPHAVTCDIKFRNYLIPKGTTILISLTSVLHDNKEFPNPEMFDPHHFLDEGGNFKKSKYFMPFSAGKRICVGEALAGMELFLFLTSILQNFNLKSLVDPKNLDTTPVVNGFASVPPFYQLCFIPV
Chain of human P2X3 receptor (P56373 whole entry): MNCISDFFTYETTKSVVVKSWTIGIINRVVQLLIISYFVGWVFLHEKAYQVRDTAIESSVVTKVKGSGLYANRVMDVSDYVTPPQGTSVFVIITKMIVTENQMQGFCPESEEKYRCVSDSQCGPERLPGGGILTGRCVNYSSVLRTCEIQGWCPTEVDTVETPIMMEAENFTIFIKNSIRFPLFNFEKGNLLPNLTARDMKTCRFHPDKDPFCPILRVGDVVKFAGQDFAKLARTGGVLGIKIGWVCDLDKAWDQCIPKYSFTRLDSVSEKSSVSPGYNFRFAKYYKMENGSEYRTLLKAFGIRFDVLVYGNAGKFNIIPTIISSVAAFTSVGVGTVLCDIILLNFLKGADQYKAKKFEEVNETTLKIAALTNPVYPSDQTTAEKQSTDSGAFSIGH

SMILES	pIC50 (CYP2C9)	pIC50 (CYP3A4)	pIC50 (CYP2C19)	pIC50 (CYP1A2)	pIC50 (CYP2D6)	other results
C[C@@H](Cn1c(=O)[nH]/c(=N\c2ccc(Oc3cccc(Cl)n3)cc2)n(Cc2ccc(Cl)cc2)c1=O)C(=O)O [Compound I-014]						clearance [1, 3]: 4 mL/min/kg; AUC [1, 4]: 2300 ng·h/mL; AUC [1, 5]: 4890 ng·h/mL
O=C(O)C1(Cn2c(=O)[nH]/c(=N\c3ccc(Oc4cccc(F)n4)cc3)n(Cc3ccc(Cl)cc3)c2=O)CC1 [Compound I-017]						clearance [1, 3]: 2.3 mL/min/kg; AUC [1, 4]: 3790 ng·h/mL; AUC [1, 5]: 6110 ng·h/mL
C[C@@H](Cn1c(=O)[nH]/c(=N\c2ccc(Oc3ccc(OC(F)F)cn3)cc2)n(Cc2ccc(Cl)cc2)c1=O)C(=O)O [Compound I-022]						pIC50 (Rat P2X3 receptor): 7.96
COC(=O)[C@@H](C)Cn1c(=O)[nH]/c(=N\c2ccc(Oc3ccc(F)cn3)cc2)n(Cc2ccc(F)cc2F)c1=O [Compound I-025]						pIC50 (human P2X3 receptor): 7.64
Cc1ccc(Cn2c(=O)n(C[C@H](C)C(=O)O)c(=O)[nH]/c2=N\c2ccc(Oc3ccc(C(F)(F)F)cn3)cc2)cc1 [Compound I-038]						solubility at 18 h [2]: > 50 µM
Cc1ccc(Cn2c(=O)n(C[C@H](C)C(=O)O)c(=O)[nH]/c2=N\c2ccc(Oc3cccc(C(F)(F)F)n3)cc2)cc1 [Compound I-039]						solubility at 18 h [2]: > 50 µM
Cc1ccc(Cn2c(=O)n(CC(C)(C)C(=O)O)c(=O)[nH]/c2=N\c2ccc(Oc3ccc(F)cn3)cc2)cc1 [Compound I-041]	< 4.70	< 4.70	< 4.70	< 4.70	< 4.70	solubility at 18 h [2]: > 50 µM
Cc1ccc(Oc2ccc(/N=c3\[nH]c(=O)n(CC(C)(C)C(=O)O)c(=O)n3Cc3ccc(Cl)cc3)cc2)nc1 [Compound I-058]						clearance [1, 3]: 5.8 mL/min/kg; AUC [1, 4]: 1510 ng·h/mL; AUC [1, 5]: 2030 ng·h/mL
COc1ccnc(Oc2ccc(/N=c3\[nH]c(=O)n(C[C@H](C)C(=O)O)c(=O)n3Cc3ccc(Cl)cc3)cc2)c1 [Compound I-069]	< 4.70	< 4.70	< 4.70	< 4.70	< 4.70	
Cc1ccc(Cn2c(=O)n(C[C@H](C)C(=O)O)c(=O)[nH]/c2=N\c2ccc(Oc3ccc(Cl)cn3)cc2)cc1 [Compound I-100]						pIC50 (Rat P2X3 receptor): 8.05
Cc1ccc(Cn2c(=O)n([C@@H](C)[C@@H](C)C(=O)O)c(=O)[nH]/c2=N\c2ccc(Oc3cccc(F)n3)cc2)cc1 [Compound I-106]	< 4.70	< 4.70	< 4.70	< 4.70	< 4.70	
Cc1ccc(Cn2c(=O)n([C@@H](C)[C@@H](C)C(=O)O)c(=O)[nH]/c2=N\c2ccc(Oc3ccc(C)cn3)cc2)cc1 [Compound I-113]						pIC50 (Rat P2X3 receptor): 8.00
C[C@@H](Cn1c(=O)[nH]/c(=N\c2ccc(Oc3ccccn3)cc2)n(Cc2ccc(Cl)cc2)c1=O)C(=O)O [Compound I-127]						clearance [1, 3]: 3.8 mL/min/kg; AUC [1, 4]: 2330 ng·h/mL; AUC [1, 5]: 2460 ng·h/mL
COc1nccc(Oc2ccc(/N=c3\[nH]c(=O)n([C@@H](C)[C@@H](C)C(=O)O)c(=O)n3Cc3ccc(Cl)cc3)cc2)n1 [Compound R-010]	< 4.70	< 4.70	< 4.70	< 4.70	< 4.70	
C[C@@H](Cn1c(=O)[nH]/c(=N\c2ccc(Oc3cnc(Cl)cn3)cc2)n(Cc2ccc(Cl)cc2)c1=O)C(=O)O [Compound R-014]	< 4.70	< 4.70	< 4.70	< 4.70	< 4.70	pIC50 (Rat P2X3 receptor): 8.22
CC(C)(Cn1c(=O)[nH]/c(=N\c2ccc(Oc3cnc(Cl)cn3)cc2)n(Cc2ccc(Cl)cc2)c1=O)C(=O)O [Compound R-027]	< 4.70	< 4.70	< 4.70	< 4.70	< 4.70	
C[C@@H](Cn1c(=O)[nH]/c(=N\c2ccc(Oc3cccnn3)c(F)c2)n(Cc2ccc(Cl)cc2)c1=O)C(=O)O [Compound R-037]						pIC50 (Rat P2X3 receptor): 8.10
COc1cc(Oc2ccc(/N=c3\[nH]c(=O)n(C[C@H](C)C(=O)O)c(=O)n3Cc3ccc(Cl)cc3)cc2)cc(F)n1 [Compound R-058]	< 4.70	< 4.70	< 4.70	< 4.70	< 4.70	
